In the assay the target is 5α-reductase. Nature of the assay: 5α-reductase inhibitory activity in vitro. Format: biochemical, rat. The settings on record: male rats' prostate enzyme, [4-C14]-testosterone, NADPH, 60 mins at 37° C., pH 7.4. The protocol:
5α-reductase inhibitory activity in vitro
Inhibitory activity on 5α-reductase in vitro was measured by the following test system.
The test was carried out by making reference to the method of J. Shimazaki et al [See Endocrinical. Japon., 18, 179 (1971)].
Male rats' prostate (4 g) was homogenized with its triple volume of 0.1M HEPES buffer (pH 7.4) including 0.25M cane sugar, and was centrifuged at 3000 r.p.m. for 10 mins.
The precipitate was suspended into the buffer solution described above (10 ml), and the suspension was centrifuged at 3000 r.p.m. for 5 mins. The resulting precipitated was suspended in the buffer solution (3 ml) described above and was used as a sauce of enzyme.
A reaction mixture (total volume 0.1 ml) of [4-C^14 ]-testosterone (1.5 n mol, 1.5×10^5 cpm) NADPH (0.5 μmol) enzyme solution (0.03 ml) described above and several kinds of concentration of the compounds in the present invention was incubated for 60 mins at 37° C. Enzyme reaction was quenched by addition of a mixture (1.0 ml) of diethyl ether, petroleum ether and acetic acid (80:20:1), and the mixture was centrifuged at 3000 r.p.m. for 5 mins. The supernatant (200 μl) was spotted on silica gel thin layer plate. The spot on the plate was developed with a mixture of chloroform, methanol and acetic acid (99:0.8:0.2). Radioactivity of dihydrotestosterone generated on the plate was measured by TLC scanner of radio-autography and inhibitory ratio was calculated.

Structures are written as SMILES.

Take `Cc1c(OCc2ccccc2)ccc(C(=O)Nc2ccccc2OCCCC(=O)O)c1C` [2(a), 4-[2-(4-benzyloxy-2,3-dimethylbenzoylamino)phenoxy]butanoic acid]: the IC50 (usually the point on the concentration scale where inhibition reaches its midpoint) was 2100 nM.

The compound `CC(C)Cc1ccc(COc2ccc(C(=O)Nc3ccccc3OCCCC(=O)O)c3ccccc23)cc1` [2(aa), 4-[2-[4-[4-isobutylbenzyloxy)naphthalene-1-carbonylamino]phenoxy]butanoic acid] registered an IC50 of 520 nM. This IC50 is about 4-fold lower than that of the compound before.

Compound `Cc1ccccc1COc1ccc(C(=O)Nc2ccccc2OCCCC(=O)O)c(C)c1C` [2(b), 4-[2-[4-(2-methylbenzyloxy)-2,3-dimethylbenzoylamino]phenoxy]butanoic acid] showed an IC50 of 380 nM.

On to `CC(C)Cc1ccc(COc2ccc(C(=O)Nc3ccccc3SCCCC(=O)O)c3c2CCCC3)cc1` [2(bb), 4-[2-[4-(4-isobutylbenzyloxy)-5,6,7,8-tetrahydronaphthalene-1-carbonylamino]phenylthio]butanoic acid], for which 420 nM corresponded to half-maximal inhibition (IC50).

`Cc1cccc(COc2ccc(C(=O)Nc3ccccc3OCCCC(=O)O)c(C)c2C)c1` [2(c), 4-[2-[4-(3-methylbenzyloxy)-2,3-dimethylbenzoylamino]phenoxy]butanoic acid] showed an IC50 of 1300 nM.

`CCCc1ccc(COc2ccc(C(=O)Nc3ccccc3SCCCC(=O)O)c(C)c2C)cc1` [2(cc), 4-[2-[4-(4-propylbenzyloxy)-2,3-dimethylbenzoylamino)phenylthio]butanoic acid] gave an IC50 of 380 nM.

The compound `Cc1ccc(COc2ccc(C(=O)Nc3ccccc3OCCCC(=O)O)c(C)c2C)cc1` [2(d), 4-[2-[4-(4-methylbenzyloxy)-2,3-dimethylbenzoylamino]phenoxy]butanoic acid] showed an IC50 of 980 nM.

`Cc1c(OC(C)c2ccc(CC(C)C)cc2)ccc(C(=O)Nc2ccccc2SCCCC(=O)O)c1C` (centres unmarked) [2(dd), 4-[2-[4-[1-(4-isobutylphenyl)ethoxy]-2,3-dimethylbenzoylamino]phenylthio]butanoic acid] came in with an IC50 of 120 nM.

`Cc1cccc(C)c1COc1ccc(C(=O)Nc2ccccc2OCCCC(=O)O)c(C)c1C` [2(e), 4-[2-[4-(2,6-dimethylbenzyloxy)-2,3-dimethylbenzoylamino]phenoxy]butanoic acid] registered an IC50 of 1400 nM.

`CCc1ccc(COc2ccc(C(=O)Nc3ccccc3OCCCC(=O)O)c(C)c2C)cc1` [2(f), 4-[2-[4-(4-ethybenzyloxy)-2,3-dimethylbenzoylamino]phenoxy]butanoic acid] returned an IC50 of 270 nM. This IC50 lies about 5.2-fold lower than the previous one.

Regarding `CCCc1ccc(COc2ccc(C(=O)Nc3ccccc3OCCCC(=O)O)c(C)c2C)cc1` [2(g), 4-[2-[4-(4-propylbenzyloxy)-2,3-dimethylbenzoylamino]phenoxy]butanoic acid], the IC50 is 340 nM.

`Cc1c(OCc2ccc(C(C)C)cc2)ccc(C(=O)Nc2ccccc2OCCCC(=O)O)c1C` [2(h), 4-[2-[4-(4-isopropylbenzyloxy)-2,3-dimethylbenzoylamino]phenoxy]butanoic acid] came in with an IC50 of 260 nM. This IC50 and that of the compound before are within 1.5-fold of each other.

In turn, `Cc1c(OCc2ccc(Cl)cc2)ccc(C(=O)Nc2ccccc2OCCCC(=O)O)c1C` [2(i), 4-[2-[4-(4-chlorobenzyloxy)-2,3-dimethylbenzoylamino]phenoxy]butanoic acid] yielded a half-maximal inhibitory concentration (IC50) of 2000 nM.

For `Cc1c(OCc2ccc(CC3CCC3)cc2)ccc(C(=O)Nc2ccccc2OCCCC(=O)O)c1C` [2(j), 4-[2-[4-(4-cyclobutylmethylbenzyloxy)-2,3-dimethylbenzoylamino]phenoxy]butanoic], half-maximal inhibition (IC50) required 2500 nM.

`Cc1c(OCCc2ccccc2)ccc(C(=O)Nc2ccccc2OCCCC(=O)O)c1C` [2(k), 4-[2-[4-(2-phenylethoxy)-2,3-dimethylbenzoylamino]phenoxy]butanoic acid]: the midpoint of inhibition, the IC50, lay at 2600 nM.

For `Cc1c(OCCCc2ccccc2)ccc(C(=O)Nc2ccccc2OCCCC(=O)O)c1C` [2(l)], the IC50 worked out at 1000 nM.

The compound `Cc1c(OCCCCc2ccccc2)ccc(C(=O)Nc2ccccc2OCCCC(=O)O)c1C` [2(m), 4-[2-[4-(4-phenylbutoxy)-2,3-dimethylbenzoylamino]phenoxy]butanoic acid] registered an IC50 of 750 nM. The IC50 values of the last two compounds are within 1.5-fold of each other.

For the compound `Cc1c(OCCCCCc2ccccc2)ccc(C(=O)Nc2ccccc2OCCCC(=O)O)c1C` [2(n), 4-[2-[4-(5-phenylpentyloxy)-2,3-dimethylbenzoylamino]phenoxy]butanoic acid], the IC50 is 950 nM.

For the compound `Cc1c(OC(C)c2ccc(CC(C)C)cc2)ccc(C(=O)Nc2ccccc2OCCCC(=O)O)c1C` (centres unmarked) [2(o), 4-[2-[4-[1-(4-isobutylphenyl)ethoxy]-2,3-dimethylbenzoylamino]phenoxy]butanoic acid], half-maximal inhibition (IC50) was put at 5 nM. Against the preceding compound, the IC50 is about 190-fold lower.

For the compound `CCCc1ccc(C(Oc2ccc(C(=O)Nc3ccccc3OCCCC(=O)O)c(C)c2C)c2ccc(CCC)cc2)cc1` [2(p), 4-[2-[4-[bis(4-propylphenyl)methoxy]-2,3-dimethylbenzoylamino]phenoxy]butanoic acid], the IC50 stood at 11 nM.

`Cc1c(OC(c2ccccc2)c2ccccc2)ccc(C(=O)Nc2ccccc2OCCCC(=O)O)c1C` [2(q)] gave an IC50 of 200 nM. Against the preceding compound, the IC50 is about 18-fold higher.

For `CC(C)Cc1ccc(COc2ccc(C(=O)Nc3ccccc3OCCCC(=O)O)c(Cl)c2Cl)cc1` [2(x), 4-[2-[4-(4-isobutylbenzyloxy)-2,3-dichlorobenzoylamino]phenoxy]butanoic acid], the IC50 was found to be 2800 nM.

`CC(C)Cc1ccc(COc2ccc(C(=O)Nc3ccccc3OCCCC(=O)O)c3c2CCC3)cc1` [2(y), 4-[2-(7-(4-isobutylbenzyloxy)indane-4-carbonylamino]phenoxy]butanoic acid] gave an IC50 of 410 nM. Against the preceding compound, the IC50 is about 6.8-fold lower.

`CC(C)Cc1ccc(COc2ccc(C(=O)Nc3ccccc3OCCCC(=O)O)c3c2CCCC3)cc1` [2(z), 4-[2-[4-(4-isobutylbenzyloxy)-5,6,7,8-tetrahydronaphthalene-1-carbonylamino]phenoxy]butanoic acid] returned an IC50 of 50 nM.

In turn, `Cc1c(OCc2ccc(CC(C)C)cc2)ccc(C(=O)Nc2ccccc2OCCCC(=O)O)c1C` [Example 2, 4-[2-[4-(4 isobutylbenzyloxy)-2 3-dimethylbenzoylamino]phenoxy]butanoic acid] yielded an IC50 of 120 nM.

As to `CCCc1ccc(COc2ccc(C(=O)Nc3ccccc3[S+]([O-])CCCC(=O)O)c(C)c2C)cc1` (centres unmarked) [Example 3, 4-[2-[4-(4-propylbenzyloxy)-2,3-dimethylbenzoylamino]phenylsulfinyl]butanoic acid], the IC50 was 700 nM.

(Values after patent publication US4980372A, “Benzoylaminophenoxybutanoic acid derivatives” (Ono Pharmaceutical Co., Ltd., priority 1987, dated 1990).)
